Results on 92 molecules are retold here after a melting point compilation (Tetko et al.; mined from patent text by program, amines drawn as free bases though some values may be those of a salt).

SMILES strings stand for the structures.

One may read the melting point as the temperature of the solid-liquid transition.

For the molecule `COCCOc1ccc(C=O)c(Oc2ncc(C(F)(F)F)cc2Cl)c1`, the melting point lay in the range of 80.5 to 81 °C.
As for `CCNC(=O)c1ccc(-n2nnc(C(=O)NC3CC3)c2COCc2ccccc2)c(OCc2ccccc2)c1`, the figure is 132 °C.
`Nc1ccc(Oc2cc(C34CCCCC3C(=O)NC4=O)c(F)cc2Cl)cc1` (configuration not stated) gave a melting point of 213 to 215 °C.
The figure for `CN(CCNc1ccn2ncc(-c3cccs3)c2n1)C(=O)OC(C)(C)C` is 140 to 141 °C.
The figure for `Cc1cc(CO)nc(N2CCN(c3ccnc([C@@H](C)O)n3)CC2)n1` is 139 to 140 °C; for `CC(C)(C)NCC(O)COc1ccccc1C#Cc1ccc(C(N)=O)cc1` (configuration not stated) it is 199 to 201 °C.
As for `OCc1cc(F)nc(F)c1F`, the figure is 48 to 49 °C.
Molecule `O=C1CN(c2ccncc2)CCN1` had a melting point of 268 to 270 °C.
As to `O=C(O)c1cc(Oc2ccc([N+](=O)[O-])cc2)cc(Oc2ccc([N+](=O)[O-])cc2)c1`, the melting point was in the range of 230 to 232 °C.
As to `O=C1NCc2c1cc1ccc3c(c1c2-c1ccc(F)cc1)OCO3`, the melting point lay in the range of 294 to 297 °C.
The figure for `CCOC(=O)C1=C(C)NC(c2cnc(Cl)s2)=NC1c1ccc(F)cc1Cl` (configuration not stated) is 159 to 162 °C; for `CCCCCCCCCCCCCCCCOc1ccc(-c2nc(CC(=O)OCC)c(OCC)o2)cc1` it is 44 to 45 °C.
As for `C#CCOc1cc(CO)cc(OCC#C)c1`, the figure is 79 to 80 °C.
`CCOC(=O)C(C#N)=Cc1cc([N+](=O)[O-])ccc1Cl` registered a melting point of 83 to 85 °C.
In turn, `CC1(C)C=C(n2cccnc2=O)c2cc(C#N)ccc2O1` displayed a melting point of 250 to 252 °C.
As for `CN1CC(CCN2CCN(c3cccc(F)c3)CC2)OC1=O` (configuration not stated), the figure is 92 to 93 °C; as for `Cc1cccc(C(O)CN2CCNC2=S)c1` (configuration not stated), 100 °C; as for `Oc1ccccc1NCCCCCCBr`, 124 to 126 °C.
The molecule `CS(=O)(=O)c1ccc(-c2cnn(-c3ccc(C(F)(F)F)cc3)c(=O)c2-c2ccc(F)cc2)cc1` gave a melting point of 171 to 173 °C.
As for `CCCCCCS(=O)(=O)c1nn2c(=O)c([N+](=O)[O-])c(OC)nc2s1`, the figure is 150 to 152 °C; as for `CCc1nc(N)nc(N)c1-c1ccc(NCc2ccc(Cl)c(Cl)c2)c([N+](=O)[O-])c1`, 244 to 246 °C.
As for `COc1ccc(C(=O)Nc2ccc(C(=O)NCc3ccccc3)cc2)cc1C12CC3CC(CC(C3)C1)C2`, the figure is 279 to 280 °C; as for `C#CCN1C(=O)COc2ccc(-n3c(=O)cc(C(F)(F)F)[nH]c3=O)cc21`, more than 250 °C; as for `CC1(C)Cc2c(Cl)c([N+](=O)[O-])cc(C(=O)O)c2O1`, 260 to 262 °C.
As for `NCc1cccc(Nc2ncnc3[nH]cc(C(=O)c4ccccc4)c23)c1`, the figure is 210 to 212 °C; as for `N#CCOc1cc(-c2ccccc2)[nH]n1`, 143 °C.
In turn, `CCCCC(=O)OCC(=O)C1(OC(C)=O)CCC2C3CC(C)C4=CC(=O)C=CC4(C)C3C(O)CC21C` (configuration not stated) came in with a melting point of 148 to 150 °C.
On to `CCCCc1oc2ccccc2c1C(=O)Nc1ccc2c(Br)c(OCC(=O)OC)ccc2c1`, for which the melting point was 179 to 181 °C.
As for `CC(=O)Nc1nc2c(Oc3cc(-c4ccc(C(F)(F)F)cc4)ncn3)cccc2s1`, the figure is 219 to 220 °C; as for `COC(=O)c1cc(OC)cc(-c2ccc(N(C)C)cc2)n1`, 157 to 158 °C; as for `Cc1cc(S(=O)(=O)c2ccc(N)cc2)cc(Br)n1`, 189 to 191 °C.
The figure for `COc1ccc(C2(c3ccc(-c4ccc(F)cc4)s3)N=C(N)N(C)C2=O)cc1C` (configuration not stated) is 110 °C.
Consider `c1ccc(C2=NN=C(N3CCSCC3)SC2)cc1`, for which the melting point was 160 °C.
The figure for `N#Cc1coc2c(Cl)cc(Cl)cc2c1=O` is 150 °C; for `NC(=O)N(O)Cc1sccc1Oc1ccccc1` it is 132 to 134 °C.
The figure for `COC(=O)c1ccc(C(=O)C=C(c2cc(Cl)cc(Cl)c2)C(F)(F)F)cc1` is 65.5 to 67.5 °C.
Regarding `CC1(COc2ccc(N3CCC(Oc4ccc(OC(F)(F)F)cc4)CC3)cc2)Cn2cc([N+](=O)[O-])nc2O1` (configuration not stated), the melting point lay in the range of 165 to 166 °C.
As to `O=C(O)CCc1cc2nc(Cl)ccc2n1S(=O)(=O)c1cccc2ccccc12`, the melting point turned out to be 93 °C.
The figure for `NC(=O)c1ccn(-c2ccc(Oc3ccccc3)cc2)n1` is 165 to 167 °C; for `N=C(Nc1cc(NC(=O)/C=C/c2ccccc2Cl)cc(C(F)(F)F)c1)c1cccs1` it is 206 to 208 °C; for `CCC1(c2cccc(S(=O)(=O)c3ccc(C(C)(C)C)cc3)c2)COC(C)(C)O1` (configuration not stated) it is 108 to 110 °C.
For the molecule `N#Cc1ccc(-c2ccc(NCCCC3CCCCO3)cc2)cc1` (configuration not stated), the melting point was in the range of 111 to 113 °C.
As for `COc1ccc(C=C2CCc3c2nc2ccc(C)cn2c3=O)cc1`, the melting point fell in the range of 210 to 211 °C.
As for `CCOCCn1c(NC2CCN(CCO)CC2)nc2cccnc21`, the figure is 94.3 °C; as for `COC(=O)CC(=O)c1cncc(OC)n1`, 66 °C; as for `O=C(O)c1ccc2c(c1)S(=O)(=O)N=C(n1ccnc1)N2`, more than 300 °C.
As for `Cc1cccc(-c2csc(N3C(=O)c4ccccc4C3=O)c2C(=O)O)c1`, the figure is 195 °C.
The figure for `COc1cccc(S(=O)(=O)c2ccc3c(c2)c(CCNC(=O)OC(C)(C)C)c(C)n3C)c1` is 115 to 122 °C; for `CC(C)NC(=S)n1ccc2ccc(Cl)cc21` it is 92 to 93 °C; for `CCOC(=O)CCCn1c(NC(=O)c2cccs2)nc2cc(C(=O)N(C)C3CCCCC3)ccc21` it is 82 to 84 °C.
The molecule `CS(=O)(=O)c1ccc(/C(=C\CC2CCCC2)C(=O)O)cc1` had a melting point of 162 to 165 °C.
The figure for `COc1ccccc1-c1cccc([N+](=O)[O-])c1` is 68 to 69 °C; for `CC(=O)N1CCC(NC(=O)Nc2ccc(C(F)(F)F)cc2)CC1` it is 240 to 248 °C.
On to `COCCOc1ccc(OCC(O)CNCCOc2cccc(O)c2C(N)=O)cc1` (configuration not stated), for which the melting point lay within 176 to 179 °C.
As for `CCc1cccc2nc3c(=O)[nH][nH]c(=O)c3c(O)c12`, the figure is more than 400 °C; as for `Cc1cc(-n2cncn2)c2cccc(OCc3c(Cl)ccc(S(=O)(=O)N4CCC[C@H]4C(=O)NCC4CCN(CCCO)CC4)c3Cl)c2n1`, 136 °C; as for `CC(=Nc1ccc(O)cc1C)c1ccccc1O`, 144 to 156 °C.
In turn, `Brc1cccc2[nH]cc(Sc3ccccc3)c12` returned a melting point of 137 to 139 °C.
For `CN(C1CCN(CC(C)(C)O)CC1)S(=O)(=O)c1ccc(Nc2nccc(Nc3ccc(F)cc3)n2)cc1`, the melting point fell in the range of 216 to 217 °C.
The figure for `O=C(O)C1CCc2ccccc2N1C(=O)CS` (configuration not stated) is 85 to 96 °C; for `S=c1[nH]nc(-c2ccc3ccccc3c2)s1` it is 254 to 256 °C.
The figure for `CNc1nnc(-c2ccc3occ(-c4ccccc4Cl)c3c2)o1` is 205 to 206 °C; for `O=C1c2ccccc2-c2c1c1ccccc1c(=O)n2CCCl` it is 210 to 212 °C.
As for `O=C(NCCCn1ccnc1)c1ccccc1NS(=O)(=O)c1ccc(Cl)cc1`, the melting point is 175 to 177 °C.
The figure for `CCc1cc(C)cc(CC)c1C(C(N)=O)C(N)=O` is 184 to 186 °C; for `FC(F)(F)c1ccc(-c2cc3[nH]ccn3n2)cc1` it is 134 to 135 °C; for `CCc1cc(C(=O)O)c(C)o1` it is 97 to 99 °C.
With `O=C(O)C1=Cc2cc(S(=O)(=O)Cl)ccc2OC1C(F)(F)F` (configuration not stated), the melting point lay in the range of 208 to 212 °C.
Turning to `COC(=O)c1ccc(Cl)cc1NC(=O)CSc1ccccc1Cl`, the melting point lay within 99 to 101 °C.
As for `COc1ccc2c(c1)CCCC2n1cc[nH]c1=S` (configuration not stated), the figure is 190 to 192 °C; as for `COc1cnn([C@@H]2C[C@H](O)[C@@H](O)[C@H]2O)c(=O)c1Cl` (racemic), 166 to 168 °C.
The figure for `OC(c1nc(-c2ccc(F)cc2)c(-c2ccc(F)cc2)[nH]1)(C(F)(F)F)C(F)(F)F` is 153 to 155 °C.
As for `O=C1CCN(c2c(F)cc([N+](=O)[O-])cc2F)CC1`, the figure is 130 to 132 °C; as for `O=Cc1c2c(cc3ccccc13)Cc1ccccc1-2`, 104 to 106 °C.
`CC(CC(=O)Nc1c(Cl)ccc2nc(N3CCC(N)C3)ccc12)c1ccccc1` (configuration not stated) displayed a melting point of 204 to 207 °C.
As for `O=S(=O)(N1CCCC1)N1CCN(c2ccnc(CO)n2)CC1`, the figure is 128 to 131 °C; as for `FC(F)Oc1cccc2cnsc12`, 58 to 59 °C.
The figure for `COC(=O)[C@]1(C)Oc2ccccc2NC1=O` is 153 to 157 °C.
The figure for `COc1cc(COc2ccc(N)nn2)c2ccccc2c1` is 167 to 170 °C; for `COc1cc(C(=O)c2ccccc2[N+](=O)[O-])c(Br)cn1` it is 128 to 131 °C.
`CC(=O)OC1CC2=CC=C3C4CCC(C(C)C=CC(C)C(C)C)C4(C)CCC3C2(C)C(OC(C)=O)C1` (configuration not stated) registered a melting point of 128 to 130 °C.
As for `O=Cc1ccc2[nH]cc(CCCCN3CC=C(c4ccccc4)CC3)c2c1`, the figure is 131 °C; as for `CC(=O)CCCNC(=O)c1c2ccc(Cl)cc2c(-c2ccccc2)n1C`, 128 to 131 °C.
The figure for `Nc1ncc(-c2ccc(=O)[nH]n2)c(-c2cccs2)n1` is 265 °C; for `COc1cc(C)cc(C(=O)O)c1C12OC1C(=O)c1c(O)cccc1C2=O` (configuration not stated) it is 267 to 268 °C; for `O=C(N1CC2CC(C1)c1ccccc12)C(F)(F)F` it is 67 to 68 °C.
The figure for `CN1C(=O)C(C)(C)C(=O)N(C)c2ccccc21` is 159 to 160 °C; for `CCOC(=O)c1nn(-c2ccc(Cl)cc2)c(=O)c(C#N)c1C` it is 160 to 161 °C.
Molecule `CCC(=O)Nc1ccc(-c2ccncc2)cc1` gave a melting point of 179 to 181 °C.
As for `O=c1cc(N2CCOCC2)oc2ccccc12`, the figure is 143 °C; as for `COC(=O)[C@@H]1CCCN1C(=O)CCC(=O)c1ccccc1`, 66 to 70 °C.
For the molecule `COc1ccnc(CSc2nc3cscc3n2C(=O)OCc2ccccc2)c1`, the melting point fell in the range of 102 to 104 °C.
